Measurements published in patent publication US10308683B2, “Bicyclic lipolantipeptide, preparation and use as antimicrobial agent” (priority 2015, dated 2019).

Columns and labels:
[1] = system: S. aureus - ATCC 13709 (Fully susceptible); test: MIC, CLSI dilution susceptibility test (aerobic); format: cell-based; settings: for Minimal Inhibitory Concentration (MIC): Table 2, S. aureus - ATCC 13709 (Fully susceptible)
Description: Clinical and Laboratory Standards Institute Document M07-A10. • 2. […] Clinical and Laboratory Standards Institute Document M11-A8. • 3.

[2] = system: S. pneumoniae - ATCC 33400; settings: Table 2
Protocol: (§1) Methods for Dilution Antibacterial Susceptibility Tests for Bacteria That Grow Aerobically; Approved Standard—Tenth Edition (2015). Clinical and Laboratory Standards Institute Document M07-A10. • 2. Methods for Antimicrobial Susceptibility Testing of Anaerobic Bacteria; Approved Standard—Eighth Edition (2012). Clinical and Laboratory Standards Institute Document M11-A8. • 3. Antimycobacterial activity was determined as described in Journal of Clinical Microbiology (2009, 47:1773-1780) by Springer et al. Quantitative drug susceptibility testing of Mycobacterium tuberculosis by use of MGIT 960 and EpiCenter Instrumentation.

[3] = system: S. aureus - ATCC 1683 (Methicillin resistant); settings: for Minimal Inhibitory Concentration (MIC): Table 2, S. aureus - ATCC 1683 (Methicillin resistant)
[4] = system: S. aureus - USA300; settings: Table 2
[5] = system: C. difficile ATCC 700057; settings: Table 3, Gram-positive anaerobe
Protocol: as §1

[6] = system: E. faecium ATCC1858 (Vancomycin (Van) sensitive); settings: Table 3, Gram-positive aerobe
Protocol: as §1

[7] = system: P. acnes 1201; settings: Table 3, Gram-positive anaerobe
Protocol: as §1

[8] = system: S. agalactiae 31432663; settings: Table 3, Gram-positive aerobe
Protocol: as §1

[9] = system: S. epidermidis 37361192 (Methicillin sensitive); settings: Table 3, Gram-positive aerobe
Protocol: as §1

[10] = system: S. mitis 39050149; settings: Table 3, Gram-positive aerobe
Protocol: as §1

[11] = system: S. oralis 39151368; settings: Table 3, Gram-positive aerobe
Protocol: as §1

[12] = system: S. pneumoniae R119 (R6 like) (Penicillin sensitive); settings: Table 3, Gram-positive aerobe
Protocol: as §1

[13] = system: S. pyogenes 37352281; settings: Table 3, Gram-positive aerobe
Protocol: as §1

[14] = system: S. epidermidis 31435861 (Methicillin resistant); settings: Table 3, Gram-positive aerobe
[15] = system: S. pneumoniae 6883 (Penicillin resistant); settings: Table 3, Gram-positive aerobe
[16] = system: E. faecium 31152980 (Van A resistant); settings: Table 3, Gram-positive aerobe
[17] = system: E. faecium 31430797 (Van B resistant); settings: Table 3, Gram-positive aerobe
[18] = system: M. tuberculosis H37Rv; settings: Table 3, Mycobacteria

| SMILES | Minimal Inhibitory Concentration (MIC) [1] | Minimal Inhibitory Concentration (MIC) [2] | Minimal Inhibitory Concentration (MIC) [3] | Minimal Inhibitory Concentration (MIC) [4] | MIC ([1]; Table 3, Gram-positive aerobe, S. aureus ATCC13709, Methicillin sensitive) | MIC [5] | MIC [6] | MIC [7] | MIC [8] | MIC [9] | MIC [10] | MIC [11] | MIC [12] | MIC [13] | MIC ([3]; Table 3, Gram-positive aerobe, S. aureus ATCC1683, Methicillin resistant) | MIC [14] | MIC [15] | MIC [16] | MIC [17] | MIC [18] |
| --- | --- | --- | --- | --- | --- | --- | --- | --- | --- | --- | --- | --- | --- | --- | --- | --- | --- | --- | --- | --- |
| C/N=C(\NC)NCCCCCCCCCCCCCCC(=O)NC(C)C(=O)NC1CC2(CS/C=C\NC(=O)C(CO)NC(=O)C(CCC(N)=O)NC2=O)NC(=O)CNC(=O)C(CC(C)C)NC1=O (stereo not drawn) [Compound A] | ≤0.04 µg/mL | ≤0.15 µg/mL | ≤0.3 µg/mL | ≤0.08 µg/mL | – | – | – | – | – | – | – | – | – | – | – | – | – | – | – | – |
| C/N=C(\NC)NCCCCCCCCCCCCCCCCC(=O)NC(C)C(=O)NC1CC2(CS/C=C\NC(=O)C(CO)NC(=O)C(CCC(N)=O)NC2=O)NC(=O)CNC(=O)C(CC(C)C)NC1=O (stereo not drawn) [Compound C] | ≤0.04 µg/mL | ≤0.08 µg/mL | ≤0.3 µg/mL | ≤0.08 µg/mL | ≤0.04 µg/mL | ≤0.25 µg/mL | ≤0.5 µg/mL | ≤0.06 µg/mL | ≤0.25 µg/mL | ≤0.25 µg/mL | ≤0.25 µg/mL | ≤0.25 µg/mL | ≤0.125 µg/mL | ≤0.5 µg/mL | ≤0.3 µg/mL | ≤0.25 µg/mL | ≤0.125 µg/mL | ≤0.25 µg/mL | ≤0.25 µg/mL | ≤1 µg/mL |
